The results in this text go back to ChEMBL document CHEMBL1133987, “Broad spectrum antiprotozoal agents that inhibit histone deacetylase: structure-activity relationships of apicidin. Part 1” (Bioorg Med Chem Lett, 2001).

≈ marks a conversion by molar mass, not a printed value.

The test system of one assay is HeLa. Briefly: Concentration for 50% inhibition of cell growth of human HeLa cells or foreskin fibroblasts in In vitro anti-proliferative functional assay.
The test system of a further assay is Eimeria tenella. Briefly: Antiprotozoal activity (functional assay) using […] bovine kidney (MDBK) host cells infected with Eimeria tenella.
The test system of the next assay is Plasmodium falciparum. The experiment in a line: In vitro antiprotozoal activity against Plasmodium falciparum 3D7 infected erythrocytes […]. It counts as functional, organism-based.
Assay [1] deals with Histone deacetylase. Briefly: Inhibitory activity against histone deacetylase (HDAC) derived from partially purified extracts of human HeLa cells.
Assay [2] has as its target Histone deacetylase. Briefly: Inhibitory activity against histone deacetylase (HDAC) derived from partially purified extracts of mammalian HeLa cells. The arrangement: species or system Homo sapiens.

For the compound `CCC(=O)CCCCC[C@@H]1/N=C(\S)[C@H]2CCCCN2CC(=O)[C@H]([C@@H](C)CC)/N=C(\S)[C@H](Cc2cn(OC)c3ccccc23)NC1=O`, the AP50 with HeLa worked out at 1000 ng/mL. In the assay on Eimeria tenella, this compound had a minimal inhibitory concentration (MIC) of 0.125 mg/L (≈ 0.187 µM). The IC50 with Plasmodium falciparum came to 0.1 mg/L (≈ 0.149 µM).
`CCC(=O)CCCCC[C@@H]1NC(=O)[C@H]2CCCCN2CC(=O)[C@H]([C@@H](C)CC)/N=C(\S)[C@H](Cc2cn(OC)c3ccccc23)N=C1S`: in the assay on HeLa, the AP50 was 1000 ng/mL. For the same compound, in the assay with Eimeria tenella, it took 0.125 mg/L (≈ 0.187 µM) to inhibit growth (MIC). Moreover, the 50% inhibitory concentration (IC50) in the assay on Plasmodium falciparum is 0.1 mg/L (≈ 0.149 µM).
In the assay with Eimeria tenella, `CC[C@H](C)[C@@H]1NC(=O)[C@H](Cc2cn(OC)c3ccccc23)NC(=O)[C@H](CCCCCP(=O)([O-])O)NC(=O)[C@H]2CCCCN2CC1=O.[K+]` gave an MIC greater than 1 mg/L. The IC50 in the assay with Plasmodium falciparum was greater than 1 mg/L; on Histone deacetylase [1] it was 0.18 µM.
As for `CC[C@H](C)[C@@H]1NC(=O)[C@H](Cc2cn(OC)c3ccccc23)NC(=O)[C@H](CCCCCCC(=O)OC)NC(=O)[C@H]2CCCCN2CC1=O`, the minimal inhibitory concentration (MIC) in the assay with Eimeria tenella was greater than 1 mg/L. Further, the values for the IC50 in the assay with Plasmodium falciparum and against Histone deacetylase [1] were 0.5 mg/L (≈ 0.765 µM) and 0.007 µM, respectively.
Consider `CCC(=O)C(=O)CCCC[C@@H]1NC(=O)[C@H]2CCCCN2CC(=O)[C@H]([C@@H](C)CC)NC(=O)[C@H](Cc2cn(OC)c3ccccc23)NC1=O`, for which it took 0.313 mg/L (≈ 0.48 µM) to inhibit growth with Eimeria tenella (MIC). The half-maximal inhibitory concentration (IC50) in the assay on Plasmodium falciparum was determined as 0.7 mg/L (≈ 1.07 µM); at Histone deacetylase [1], 0.018 µM.
`CCC(=O)C(F)CCCC[C@@H]1NC(=O)[C@H]2CCCCN2CC(=O)[C@H]([C@@H](C)CC)NC(=O)[C@H](Cc2cn(OC)c3ccccc23)NC1=O` (stereo partly specified) gave a minimum inhibitory concentration (MIC) in the assay on Eimeria tenella of 0.313 mg/L (≈ 0.477 µM). Also, the 50% inhibitory concentration (IC50) with Plasmodium falciparum came out at 0.7 mg/L (≈ 1.07 µM); against Histone deacetylase [1], 0.11 µM.
`CC[C@H](C)[C@@H]1NC(=O)[C@H](Cc2cn(OC)c3ccccc23)NC(=O)[C@H](CCCCC(=O)OC)NC(=O)[C@H]2CCCCN2CC1=O` had a minimum inhibitory concentration (MIC) with Eimeria tenella greater than 1 mg/L. For the same compound, the values for the IC50 in the assay with Plasmodium falciparum and against Histone deacetylase [1] were greater than 1 mg/L and 0.074 µM, respectively.
Regarding `CC[C@H](C)[C@@H]1NC(=O)[C@H](Cc2cn(OC)c3ccccc23)NC(=O)[C@H](CCCCCC=O)NC(=O)[C@H]2CCCCN2CC1=O`, inhibition of growth against Eimeria tenella (MIC) required 1 mg/L (≈ 1.64 µM). Moreover, the IC50 in the assay with Plasmodium falciparum is 0.5 mg/L (≈ 0.82 µM); at Histone deacetylase [1], 0.006 µM.
In the assay on HeLa, `CCC(=O)CCCCC[C@@H]1NC(=O)[C@H]2CCCCN2CC(=O)[C@H]([C@@H](C)CC)/N=C(\S)[C@H](Cc2cn(OC)c3ccccc23)NC1=O` yielded an AP50 of 1000 ng/mL. The compound further came in with a minimum inhibitory concentration (MIC) with Eimeria tenella of 0.125 mg/L (≈ 0.191 µM). For the same compound, the values for the half-maximal inhibitory concentration (IC50) in the assay on Plasmodium falciparum and against Histone deacetylase [2] were 0.1 mg/L (≈ 0.153 µM) and 0.085 µM, respectively.
Take `CC[C@H](C)[C@@H]1NC(=O)[C@H](Cc2cn(OC)c3ccccc23)NC(=O)[C@H](CCCCCC(=O)C(C)C)NC(=O)[C@H]2CCCCN2CC1=O`: it took 0.75 mg/L (≈ 1.15 µM) to inhibit growth against Eimeria tenella (MIC). Also, the IC50 in the assay on Plasmodium falciparum stood at 0.5 mg/L (≈ 0.767 µM); against Histone deacetylase [1], 0.235 µM.

For orientation: MIC means the least concentration at which growth counts as inhibited. A high value points to a less susceptible organism. What is called IC50 is the concentration that inhibits the measured activity by half. Lower therefore signals inhibition by little substance.
